# Assay results as given in publication PMC7468285, “The operational model of allosteric modulation of pharmacological agonism” (Scientific Reports, 2020).
# Several values for one entry are separate records, joined by “and”; a condition that tells them apart may be missing. Identical values can stand only once. Like-named read-outs stand apart in the source and are kept apart here.
# Legend:
# M1 muscarinic receptor [1] = target: T1, M1 muscarinic receptor (Homo sapiens, UniProt P11229); format: cell-based; conditions: for τA / EMAX: Table S3B, global fit; for τA: EMAX as shared parameter; for EMAX: EMAX estimated as shared parameter of all 4 curves; for α (factor of binding cooperativity) / β (factor of operational cooperativity): functional, global fit of Eq. (14)
# T1 construct: expressed in transfected cells; host or cells: CHO cells
# T1 sequence (P11229 1-460): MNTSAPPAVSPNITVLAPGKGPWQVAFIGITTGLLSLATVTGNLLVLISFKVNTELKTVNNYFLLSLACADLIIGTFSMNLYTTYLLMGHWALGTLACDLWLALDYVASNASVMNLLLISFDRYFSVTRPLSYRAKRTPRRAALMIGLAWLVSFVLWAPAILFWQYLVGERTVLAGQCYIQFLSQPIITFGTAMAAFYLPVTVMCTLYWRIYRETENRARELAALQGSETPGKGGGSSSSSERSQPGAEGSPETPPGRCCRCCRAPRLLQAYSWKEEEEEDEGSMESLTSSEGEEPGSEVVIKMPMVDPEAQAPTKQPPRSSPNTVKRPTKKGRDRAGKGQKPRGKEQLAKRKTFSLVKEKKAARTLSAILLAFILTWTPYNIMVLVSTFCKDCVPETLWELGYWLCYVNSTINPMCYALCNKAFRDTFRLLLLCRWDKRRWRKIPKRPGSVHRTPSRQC
# Description: (§1) CHO cells were grown to confluence in 75 cm^2 flasks in Dulbecco’s modified Eagle’s medium (DMEM) supplemented with 10% fetal bovine serum. Two million cells were subcultured in 100 mm Petri dishes. The medium was supplemented with 5 mM sodium butyrate for the last 24 h of cultivation to increase receptor expression. Cells were washed with phosphate-buffered saline and manually harvested on day 5 after subculture and centrifuged for 3 min at 250 × g. The pellet was suspended in 10 ml of ice-cold homogenization medium (100 mM NaCl, 20 mM Na-HEPES, 10 mM EDTA, pH = 7.4) and homogenized on ice by two 30 s strokes using a Polytron homogenizer (Ultra-Turrax; Janke & Kunkel GmbH & Co. KG, IKA-Labortechnik, Staufen, Germany) with a 30-s pause between strokes. Cell homogenates were centrifuged for 5 min at 1,000 × g. The supernatant was collected and centrifuged for 30 min at 30,000 × g. Pellets were suspended in the washing medium (100 mM, 10 mM MgCl2, 20 mM Na-HEPES, pH = 7.4), left for 30 min at 4 °C, and then centrifuged again for 30 min at 30,000 × g. Resulting membrane pellets were kept at -80 °C until assayed.
# Accumulation of inositol phosphates (IPX) was assayed in cells in suspension. IPX was determined after separation on ion-exchange columns (Dowex 1X8-200, Sigma, USA). Cells were harvested by mild trypsinization and resuspended in KHB and centrifuged 250 g for 3 min. Cells were resuspended in KHB supplemented with 500 nM [^3H]myo-inositol (ARC, USA) and incubated at 37 °C for 1 h. Then they were washed once with an excess of KHB, resuspended in KHB containing 10 mM LiCl, and incubated for 1 h at 37 °C in the presence of indicated concentrations of agonists and/or allosteric modulator. Incubation was terminated by the addition of 0.5 ml of stopping solution (chloroform: methanol: HCl; 2: 1: 0.1) and placed in 4 °C for 1 h. An aliquot (0.6 ml) of the upper (aqueous) phase was taken and loaded onto ion-exchange columns. Columns were washed with 10 ml of deionized water and 20 ml of 60 mM ammonium formate/5 mM sodium borate solution. IPX were collectively eluted from columns by 4 ml of 1 M ammonium formate-0.1 M/formic acid buffer.
# (§2) Where [D] and KD are concentration and equilibrium dissociation constant of the tracer ([^3H]NMS), [A] and KA are concentration and equilibrium dissociation constant of the agonist. Parameters KB and α1 obtained by fitting of Eq. (29) to binding data in the absence of the agonist.31 Concentration-responsecurvey=basal+EMAX′-basal∗x^nH/x^nH+EC50nH where y is response normalized to basal activity in the absence of allosteric ligand at concentration x, E'MAX is the apparent maximal response, EC50 is concentration causing half-maximal effect, and nH is Hill coefficient.
# M1 muscarinic receptor [2] = target: T1, M1 muscarinic receptor; format: binding
# Description: as §1
# All radioligand binding experiments were optimized and carried out according to general guidelines. […] Agonist binding was determined in competition experiments with 1 nM [^3H]NMS. Nonspecific binding was determined in the presence of 10 μM atropine. Incubation was terminated by filtration through Whatman GF/C glass fibre filters (Whatman) using a Brandel harvester (Brandel, USA). […] The filters were cooled and counted in a Wallac Microbeta scintillation counter (Wallac, Finland).
# Data from experiments were processed in Libre Office and then analysed and plotted using program Grace (https://plasma-gate.weizmann.ac.il/Grace). […] Inhibition constant KI was calculated as:28 KI=IC50/1+D/KD where [D] is the concentration of radioligand used and KD is its equilibrium dissociation constant.
# Interaction between tracer ([^3H]NMS) and allosteric modulator:29 y=D+KD/D+KDKB+x/KB+xα where y is specific radioligand binding at concentration x of the allosteric modulator as per cent of binding in the absence of allosteric modulator. Where [D] and KD are concentration and equilibrium dissociation constant of the tracer ([^3H]NMS). The equilibrium dissociation constant of the allosteric modulator KB and factor of binding cooperativity α are obtained by fitting of Eq. (29) to data.
# as §2, with “Interaction between tracer ([^3H]NMS) and allosteric modulator in the presence of an agonist at fixed concentration:30 y=D+KD/D+KDAKB+Bα2+KAKB+B/KAKB+Bα1 where y is specific radioligand binding at concentration x of the allosteric modulator as per cent of binding in the absence of allosteric modulator. Where” for “Where”
structure (smiles),measurement,setting,value
"Cc1ccccc1CN1CCC(N2CCC(n3c(=O)[nH]c4ccccc43)CC2)CC1 [TBPB, 3-[1-[1-[(2-methylphenyl)methyl]piperidin-4-yl]piperidin-4-yl]-1H-benzimidazol-2-one]",E’MAX,M1 muscarinic receptor [1],56.0 ± 2.2 and 57.8 ± 3.3 and 57.9 ± 1.4
same,E′MAX of response compared with carbachol,M1 muscarinic receptor [1],close to E′MAX of full agonist carbachol
same,basal,M1 muscarinic receptor [1],52.7 and 53.2 and 51.3
same,effect on EC′50 of carbachol and iperoxo,M1 muscarinic receptor [1],increased EC′50 values
same,nH,M1 muscarinic receptor [1],1.15 ± 0.18 and 1.18 ± 0.20 and 0.85 ± 0.15
same,binding cooperativity α in functional experiments compared with binding experiments,M1 muscarinic receptor [1]; Figs. 14 and 15 vs Fig. 12,about twice stronger
same,τA,M1 muscarinic receptor [1],1.26 ± 334
same,EMAX,M1 muscarinic receptor [1],98 ± 53
same,effect on E′MAX of carbachol and iperoxo,M1 muscarinic receptor [1]; fixed concentrations of allosteric ligand,decreased E′MAX values
same,α (factor of binding cooperativity),M1 muscarinic receptor [1]; with carbachol,0.48 ± 0.05
same,β (factor of operational cooperativity),M1 muscarinic receptor [1]; with carbachol,0.80 ± 0.05
same,α (factor of binding cooperativity),M1 muscarinic receptor [1]; with iperoxo,0.51 ± 0.08
same,β (factor of operational cooperativity),M1 muscarinic receptor [1]; with iperoxo,0.78 ± 0.08
same,E’MAX,M1 muscarinic receptor [1]; iperoxo + 1 µM TBPB,59.7 ± 3.9 fold-over basal
same,basal,M1 muscarinic receptor [1]; iperoxo + 1 µM TBPB,51.3 fold-over basal
same,nH,M1 muscarinic receptor [1]; iperoxo + 1 µM TBPB,1.18 ± 0.20
same,E’MAX,M1 muscarinic receptor [1]; iperoxo + 3 µM TBPB,58.0 ± 4.8 fold-over basal
same,basal,M1 muscarinic receptor [1]; iperoxo + 3 µM TBPB,52.7 fold-over basal
same,nH,M1 muscarinic receptor [1]; iperoxo + 3 µM TBPB,0.82 ± 0.20
same,E’MAX,M1 muscarinic receptor [1]; iperoxo + 10 µM TBPB,57.6 ± 2.9 fold-over basal
same,basal,M1 muscarinic receptor [1]; iperoxo + 10 µM TBPB,53.2 fold-over basal
same,nH,M1 muscarinic receptor [1]; iperoxo + 10 µM TBPB,1.19 ± 0.22
same,E’MAX (apparent maximal response),"M1 muscarinic receptor [1]; ligand alone, Eq. (31)",54.4 ± 0.9 fold-over basal
same,nH (slope),"M1 muscarinic receptor [1]; ligand alone, Eq. (31)",1.01 ± 0.08
same,operational cooperativity β,"M1 muscarinic receptor [1]; with both carbachol and iperoxo, indicated by E′MAX change",< 1
same,αNMS (factor of binding cooperativity with NMS),M1 muscarinic receptor [2]; Eq. (29),0.002 ± 0.001
same,inhibition of [3H]NMS binding,M1 muscarinic receptor [2]; allosteric ligand alone,completely inhibited
same,αcarbachol (factor of binding cooperativity with carbachol),"M1 muscarinic receptor [2]; binding experiments, Eq. (30)",0.7 ± 0.3
same,αiperoxo (factor of binding cooperativity with iperoxo),"M1 muscarinic receptor [2]; binding experiments, Eq. (30)",0.8 ± 0.4
same,decrease in affinity of [3H]NMS,"M1 muscarinic receptor [2]; fit of Eq. (29), TBPB estimate with high uncertainty",500 fold
same,binding cooperativity with carbachol and iperoxo,"M1 muscarinic receptor [2]; fit of Eq. (30), high degree of uncertainty",slightly negative
C[N+](C)(C)CC#CCOC1=NOCC1 [iperoxo],τA,M1 muscarinic receptor [1],1.97 ± 708
same,EMAX,M1 muscarinic receptor [1],98 ± 53
same,basal,M1 muscarinic receptor [1]; agonist alone,1 fold-over basal
same,efficacy ranking,M1 muscarinic receptor [1]; functional experiments,greater efficacy than carbachol
same,E’MAX (apparent maximal response),"M1 muscarinic receptor [1]; ligand alone, Eq. (31)",64.7 ± 0.5 fold-over basal
same,nH (slope),"M1 muscarinic receptor [1]; ligand alone, Eq. (31)",1.04 ± 0.02
same,pEC50,"M1 muscarinic receptor [1]; ligand alone, Eq. (31)",9.42 ± 0.01
same,operational efficacy τ (τA / τB),"M1 muscarinic receptor [1]; ligand alone, Eq. […]",1.86 ± 0.04
same,pKA / pKB (functional),"M1 muscarinic receptor [1]; ligand alone, Eq. […]",8.96 ± 0.02
same,flow (fraction of low-affinity sites),M1 muscarinic receptor [2]; Eq. (27),51 ± 5%
same,high-affinity binding (candidate KA),"M1 muscarinic receptor [2]; competition with [3H]NMS, high-affinity sites",200 pM
same,pIC50high,"M1 muscarinic receptor [2]; high-affinity sites, 1 nM [3H]NMS, Eq. (27)",8.99 ± 0.05
same,pKIhigh,"M1 muscarinic receptor [2]; high-affinity sites, 1 nM [3H]NMS, calculated from IC50 by Eq. (28)",9.70 ± 0.05
same,pIC50low,"M1 muscarinic receptor [2]; low-affinity sites, 1 nM [3H]NMS, Eq. (27)",5.96 ± 0.04
same,pKIlow,"M1 muscarinic receptor [2]; low-affinity sites, 1 nM [3H]NMS, calculated from IC50 by Eq. (28)",6.66 ± 0.04
